Read-outs that look alike come from different tables or passages of the source.
Columns and labels:
[1] = system: human intestinal epithelial cells (FHs 74 Int); experiment: CCK-8 cell viability: alleviation of proliferative toxicity of anti-tumor agents on FHs 74 Int (Table 8-4); assay type: cell-based; conditions: NO-NSAID 100 μM
Procedure: (§1) Experiments were conducted using various epithelial cells: Examples 47-51 used human immortalized keratinocytes (HaCaT) with corresponding results in Table 8-1; Examples 52-56 used human oral keratinocytes (HOK) with results in Table 8-2; Examples 57-61 used gastric epithelial cells (GES-1) with results in Table 8-3; Examples 62-66 used human intestinal epithelial cells (FHs 74 Int) with results in Table 8-4.
(§2) The cultured cells were digested the suspended, counted, and seed into a 96-well plate with 5,000-10,000 cells per well. The wells are divided into the following groups: blank control group, anti-tumor agent group, anti-tumor agent+NO-NSAID group, anti-tumor agent solvent group, NO-NSAID solvent control group. Wherein each well of each group contained a basic medium, and the final liquid volume contained in each well was about 100 μL. The grouping situation was as follows: • 1) Blank control group: no solution was added except normally replacing the medium; • 2) Anti-tumor agent group: added the anti-tumor agent solution (the final concentration was shown in Table 8-1 to Table 8-4, the solvent of the anti-tumor agent solution was DMSO); • 3) Anti-tumor agent+NO-NSAID group: added the anti-tumor agent solution and the NO-NSAID solution (the final concentrations of anti-tumor agent and NO-NSAID were shown in Table 8-1 to Table 8-4, and according to the solubility of NO-NSAID, the solvent of NO-NSAID solution was selected as ethanol or sterile water, and minor volume differences in each group were adjusted by added the corresponding solvent); • 4) Anti-tumor agent solvent group: an equal volume of DMSO as contained in the corresponding anti-tumor agent solution in Group 2) was added; • 5) NO-NSAID control group: the same volume and type of solvent (for example, ethanol or sterile water) corresponding to the NO-NSAID contained in group 3) was added.
(§3) The anti-tumor agent solvent group was not involved in data processing and was only used as a reference for evaluating experimental system error. The NO-NSAID solvent control group was used for data correction to eliminate the influence of the solvent on the results.
(§4) After culturing for 24-48 hours, the Cell Counting Kit-8 (CCK-8) detection kit (C0037, Shanghai Beyotime Biotechnology Co., Ltd., Beyotime Biotechnology) was used to determine the cell viability. This allows for the calculation of the proliferative toxicity of anti-tumor agent on cell and the mitigating effect of NO-NSAID on proliferative toxicity. The results were statistically analyzed and plotted using GraphPad Prism 6.0 software and t test.

[2] = system: gastric epithelial cells (GES-1); experiment: CCK-8 cell viability: alleviation of proliferative toxicity of anti-tumor agents on GES-1 (Table 8-3); assay type: cell-based, human; conditions: NO-NSAID 100 μM
Procedure: as §1, §2, §3, §4

[3] = system: human immortalized keratinocytes (HaCaT); experiment: CCK-8 cell viability: alleviation of proliferative toxicity of anti-tumor agents on HaCaT (Table 8-1); assay type: cell-based; conditions: NO-NSAID 100 μM, percentage increase in viable cells vs anti-tumor agent alone
Procedure: as §1, §2, §3, §4

[4] = system: hand-foot syndrome induced by anti-tumor agents; experiment: Prevention of hand-foot syndrome induced by anti-tumor agents in rats, NO-NSAID ointment on hind paws (Table 2-2); assay type: in vivo, SD rats; conditions: Rattus norvegicus, topical, read-out: Control rate; for responders at 1 %: ointment 1% wt
Excerpt: A rat animal model was constructed, and the anti-tumor agents shown in Table 2-2 were respectively administered to 8-week-old female SD rats by daily oral gavage. […] Therefore, rats serve as an excellent animal model for simulating side effects (such as hand-foot syndrome) caused by anti-tumor agents.
After the rats (about 200 g) were fed and adapted for one week, they were divided into a NO-NSAID group and a control group, with 10 rats in each group, and a gavage administration test was conducted. The various anti-tumor agents were dissolve in a mixed solution of Cremophor EL:ethanol=1:1. The anti-tumor agent solution were diluted with PBS to the required concentration (about 3 times with PBS solution) before gavage administration. After gavage, an ointment containing NO-NSAID was applied to the hind paws of the rats, while the control group was applied with a blank ointment. After application, the rats were placed in a fixed cylinder for 4 hours. After 4 hours, the rats were released and the residual ointment was wiped off with clean water, then the rats were returned to the cage. The gavage frequency of inhibitors was shown in Table 2-2, and NO-NSAID was only applied once a day. The gavage and application operations were repeated daily until the end of the experiment.
Table 2-2 lists the animal experimental combinations of various anti-tumor agents and NO-NSAID ointments, as well as the corresponding experimental results (wherein the value in the control rate column=the hand-foot syndrome incidence rate in the blank group−the hand-foot syndrome incidence rate in the treatment group).

[5] = system: hand-foot syndrome caused by anti-tumor agents; experiment: Treatment of established hand-foot syndrome caused by anti-tumor agents in rats (Table 4); assay type: in vivo; conditions: Encorafenib 80 mg/kg once every two days; ointment 1% wt; Days 7
Procedure: After the rats (about 200 g) were fed and adapted for one week, the rats were divided into groups of 10 rats for gavage administration experiment. The anti-tumor agent was dissolved in a mixed solution of Cremophor EL:ethanol=1:1, and diluted with PBS to the required concentration (diluted about 3 times with PBS solution) before gavage. […] Specific experimental procedures followed those outlined in the prevention experiment. […] Table 4 lists the animal experiments using various anti-tumor agents and NO-NSAID ointment, as well as the corresponding experimental results (where the value in the control rate column=the incidence rate of hand-foot syndrome in the blank group−the incidence rate of hand-foot syndrome in the treatment group).

CC(C)Cc1ccc(C(C)C(=O)OCO/N=[N+](\[O-])N(C)C)cc1 (stereo not shown) [Compound A4]
Response rate % (average) ([1]; Afatinib (10 μM)): 33%
Response rate % (average) ([1]; Cabozantinib (5 μM)): 28%
Response rate % (average) ([1]; Dabrafenib (10 μM)): −9%
Response rate % (average) ([1]; Everolimus (5 μM)): 18%
Response rate % (average) ([1]; Infigratinib (15 μM)): 17%
Response rate % (average) ([1]; Lapatinib (5 μM)): 26%
Response rate % (average) ([1]; Lenvatinib (10 μM)): 38%
Response rate % (average) ([1]; Olmutinib (10 μM)): 16%
Response rate % (average) ([1]; Regorafenib (5 μM)): 31%
Response rate % (average) ([1]; Selumetinib (5 μM)): 14%
Response rate % (average) ([1]; Sorafenib (5 μM)): 24%
Response rate % (average) ([1]; Sunitinib (5 μM)): 23%
Response rate % (average) ([2]; Afatinib (10 μM)): 16%
Response rate % (average) ([2]; Cabozantinib (5 μM)): 29%
Response rate % (average) ([2]; Dabrafenib (10 μM)): 6%
Response rate % (average) ([2]; Everolimus (5 μM)): 23%
Response rate % (average) ([2]; Infigratinib (15 μM)): 36%
Response rate % (average) ([2]; Lapatinib (5 μM)): 22%
Response rate % (average) ([2]; Lenvatinib (10 μM)): 36%
Response rate % (average) ([2]; Olmutinib (10 μM)): 21%
Response rate % (average) ([2]; Regorafenib (5 μM)): 29%
Response rate % (average) ([2]; Selumetinib (5 μM)): 2%
Response rate % (average) ([2]; Sorafenib (5 μM)): 22%
Response rate % (average) ([2]; Sunitinib (5 μM)): 0%
Response rate % (average) ([3]; Afatinib (10 μM)): 31%
Response rate % (average) ([3]; Cabozantinib (5 μM)): 37%
Response rate % (average) ([3]; Dabrafenib (10 μM)): 1%
Response rate % (average) ([3]; Everolimus (5 μM)): −4%
Response rate % (average) ([3]; Infigratinib (15 μM)): 12%
Response rate % (average) ([3]; Lapatinib (5 μM)): 25%
Response rate % (average) ([3]; Lenvatinib (10 μM)): 17%
Response rate % (average) ([3]; Olmutinib (10 μM)): 26%
Response rate % (average) ([3]; Regorafenib (5 μM)): 36%
Response rate % (average) ([3]; Selumetinib (5 μM)): 3%
Response rate % (average) ([3]; Sorafenib (5 μM)): 32%
Response rate % (average) ([3]; Sunitinib (5 μM)): 16%
responders at 0.5 % ([4]; 120 h, Sorafenib 80 mg/kg once a day, ointment 0.50% wt, Days 5): 42.9%
responders at 2 % ([4]; 120 h, Sorafenib 80 mg/kg once a day, ointment 2% wt, Days 5): 71.4%

CC(=O)Oc1ccccc1C(=O)OCc1no[n+]([O-])c1C(N)=O [Compound A6]
Response rate [5]: 16.67%
responders at 1 % ([4]; 120 h, Sorafenib 80 mg/kg once a day, Days 5): 66.7%
responders at 1 % ([4]; 360 h, Encorafenib 80 mg/kg once a day, Days 15): 40%
responders at 1 % ([4]; 432 h, Cabozantinib 50 mg/kg once a day, Days 18): 40%
responders at 3 % ([4]; 432 h, Cabozantinib 50 mg/kg once a day, ointment 3% wt, Days 18): 42.9%

From US20250170090A1, “METHOD FOR PREVENTING OR TREATING DISEASE OR DISORDER ASSOCIATED WITH ANTINEOPLASTIC AGENT” (ONQUALITY PHARMACEUTICALS CHINA LTD., priority 2022, published 2025)
